These results are taken from patent publication US6939858B2, “Malto-oligosaccharide derivatives and use thereof” (Kikkoman Corporation, priority 2000, dated 2005).

The target of test [1] is T1, HSA (α-amylase derived from human salivary gland) (Homo sapiens, UniProt P0DUB6).
T1 construct: purchased International Reagents Corp., Japan Calibzyme·AMY
T1 sequence (P0DUB6 16-511): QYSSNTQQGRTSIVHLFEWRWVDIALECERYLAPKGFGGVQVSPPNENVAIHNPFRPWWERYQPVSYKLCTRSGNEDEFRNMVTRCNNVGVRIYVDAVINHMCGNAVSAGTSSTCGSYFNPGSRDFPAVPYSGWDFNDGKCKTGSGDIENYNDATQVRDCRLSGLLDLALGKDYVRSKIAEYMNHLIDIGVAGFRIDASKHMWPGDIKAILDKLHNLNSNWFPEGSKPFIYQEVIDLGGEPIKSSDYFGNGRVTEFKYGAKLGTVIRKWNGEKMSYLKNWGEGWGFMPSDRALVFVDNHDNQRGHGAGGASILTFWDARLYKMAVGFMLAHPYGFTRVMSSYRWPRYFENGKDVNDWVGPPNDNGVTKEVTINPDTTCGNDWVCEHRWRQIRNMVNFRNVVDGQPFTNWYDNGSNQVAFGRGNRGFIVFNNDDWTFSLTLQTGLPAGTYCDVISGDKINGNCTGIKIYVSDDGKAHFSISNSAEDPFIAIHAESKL
The test can be described thus: Inhibition of human α-amylase activity in vitro (blue starch, Neo·Amylase Test), HSA. The test is classed as biochemical. Conditions: final concentration of inhibitor reducing 50% of the activity of the HSA solution; 37° C., 30 minutes. The procedure: (§1) Purified water was added to commercial HPA and HSA to dissolve them to a concentration of 350 IU/1 to prepare an α-amylase solution. “Calibzyme·AMY” (produced by International Reagents Corp., Japan) was used as this commercial human α-amylase. The α-amylase activity was determined with reference to the calibration curves of a commercial α-amylase determining reagent “Neo·Amylase Test, Daiichi” (produced by Daiichi Pure Chemicals Co., Ltd., Japan).
(§2) To 100 μl of the HPA or HSA solution were added 3.0 ml of purified water, 1.0 ml of inhibitor solution and one tablet of blue starch of “Neo·Amylase Test, Daiichi” (produced by Daiichi Pure Chemicals Co., Ltd., Japan). After stirring by a mixer for about 10 seconds, the mixture was warmed at 37° C. for 30 minutes and then further stirred by adding 1.0 ml of a 0.5 N sodium hydroxide solution to cease the reaction, after which the solution was centrifuged (1,500 G, 5 min.) and absorbance of the supernatant at 620 nm was measured. As a blank, purified water was used instead of the inhibitor solution.

Test [2] concerns mice [Crj:CD-1 (ICR)]. The test can be described thus: Anti-diabetic activity: blood glucose level after oral corn starch loading in mice. The test is classed as in vivo. Conditions: mice unfed 20 hours; oral DOGGDN 10 mg, 5 mg and 1 mg with 2,000 mg corn starch per kg; 0.5-4.0 hours; t-test; FIG. 1.
Method: Commercially available healthy mice [Crj:CD-1 (ICR) available from Japan Charles River Co., Ltd.
Blood was collected from the orbital veniplex of each mouse just before administration and after the lapse of 0.5 hour, 1.0 hour, 1.5 hours, 2.0 hours, 3.0 hours and 4.0 hours after administration, and the concentration of glucose in the blood [blood glucose level (mg/dl)] was measured to examine the inhibitory effect against rise of blood glucose level after intake of corn starch, i.e. the anti-diabetic action. The inhibitory effect against rise of blood sugar level was judged by the t-test. The glucose concentration in the blood was determined using a blood glucose level analyzer “[sequence]” [mfd. by Bayer Sankyo Co., Ltd.].
The target in test [3] is T2, HPA (α-amylase derived from human pancreatic juice) (Homo sapiens, UniProt P04746).
T2 construct: purchased International Reagents Corp., Japan Calibzyme·AMY
T2 sequence (P04746 16-511): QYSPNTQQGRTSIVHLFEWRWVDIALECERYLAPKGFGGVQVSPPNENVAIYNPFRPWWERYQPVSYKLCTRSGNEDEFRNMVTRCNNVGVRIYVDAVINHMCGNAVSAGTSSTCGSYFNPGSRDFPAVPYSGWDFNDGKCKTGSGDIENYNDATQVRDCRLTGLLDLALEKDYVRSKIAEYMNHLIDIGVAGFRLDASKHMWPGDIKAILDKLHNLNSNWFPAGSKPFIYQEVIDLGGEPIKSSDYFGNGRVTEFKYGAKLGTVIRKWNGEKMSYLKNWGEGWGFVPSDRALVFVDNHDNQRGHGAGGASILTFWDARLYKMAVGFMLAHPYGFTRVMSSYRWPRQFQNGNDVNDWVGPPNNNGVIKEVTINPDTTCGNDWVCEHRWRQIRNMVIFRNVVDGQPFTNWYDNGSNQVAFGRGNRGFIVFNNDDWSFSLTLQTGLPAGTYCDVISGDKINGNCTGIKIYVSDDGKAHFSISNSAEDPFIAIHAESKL
The test can be described thus: Inhibition of human α-amylase activity in vitro (blue starch, Neo·Amylase Test), HPA. It is filed as biochemical. The note with it: final concentration of inhibitor reducing 50% of the activity of the HPA solution; 37° C., 30 minutes. On the procedure: as §1, §2

In general, IC50 refers to the concentration at which inhibition is half-maximal. With `CC1OC(OC2C(CO)OC(OC3C(CO)NCC(O)C3O)C(O)C2O)C(O)C(O)C1O` [DOGGDN, O-(6-deoxy)-α-D-glucopyranosyl-(1→4)-O-(α-D-glucopyranosyl)-(1→4)-deoxynojirimycin], the concentration for half-maximal inhibition (IC50) in test [1] amounted to 0.03 mM. Besides, in test [2], the “rise of blood glucose level as compared with the control group” value was “reduced significantly”.

Regarding `CC1OC(OC2C(CO)OC(OC3C(CO)NCC(O)C3O)C(O)C2O)C(O)C(O)C1OC1OC(CO)C(O)C(O)C1O` [GDOGGDN, O-(α-D-glucopyranosyl)-(1→4)-O-(6-deoxy-α-D-glucopyranosyl)-(1→4)-O-(α-D-glucopyranosyl)-(1→4)-deoxynojirimycin], the IC50 came out at 0.05 mM in test [3] and 0.03 mM in test [1].

`OCC1NCC(O)C(O)C1OC1OC(CO)C(OC2OC(CO)C(O)C(O)C2O)C(O)C1O` (stereo not drawn) [GGDN, Maltosyl-deoxynojirimycin, reference compound]: the IC50 in test [3] and in test [1] was 0.26 mM in each case.
